T1: CYP26 (Mus musculus, UniProt O55127)
T1 construct: substrate depletion assay for ATRA metabolism in mouse microsomes; tissue Xenotech; host or cells: liver microsomes of mice treated with ATRA for four days
T1 sequence (O55127 1-497): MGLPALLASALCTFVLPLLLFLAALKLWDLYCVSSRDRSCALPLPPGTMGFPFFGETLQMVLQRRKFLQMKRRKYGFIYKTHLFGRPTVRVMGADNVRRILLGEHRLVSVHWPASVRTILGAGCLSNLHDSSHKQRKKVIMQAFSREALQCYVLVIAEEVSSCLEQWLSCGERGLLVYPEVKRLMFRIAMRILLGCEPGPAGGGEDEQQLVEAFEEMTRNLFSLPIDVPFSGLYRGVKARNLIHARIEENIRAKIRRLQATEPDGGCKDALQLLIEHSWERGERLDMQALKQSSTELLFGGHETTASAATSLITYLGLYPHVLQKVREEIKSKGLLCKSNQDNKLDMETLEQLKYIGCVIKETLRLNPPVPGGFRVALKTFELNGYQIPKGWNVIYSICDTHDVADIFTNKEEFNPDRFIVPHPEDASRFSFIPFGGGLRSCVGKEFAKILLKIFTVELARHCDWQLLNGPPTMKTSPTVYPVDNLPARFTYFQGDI

T2: human recombinant enzyme (CYP26) (Homo sapiens, UniProt O43174)
T2 sequence (O43174 1-497): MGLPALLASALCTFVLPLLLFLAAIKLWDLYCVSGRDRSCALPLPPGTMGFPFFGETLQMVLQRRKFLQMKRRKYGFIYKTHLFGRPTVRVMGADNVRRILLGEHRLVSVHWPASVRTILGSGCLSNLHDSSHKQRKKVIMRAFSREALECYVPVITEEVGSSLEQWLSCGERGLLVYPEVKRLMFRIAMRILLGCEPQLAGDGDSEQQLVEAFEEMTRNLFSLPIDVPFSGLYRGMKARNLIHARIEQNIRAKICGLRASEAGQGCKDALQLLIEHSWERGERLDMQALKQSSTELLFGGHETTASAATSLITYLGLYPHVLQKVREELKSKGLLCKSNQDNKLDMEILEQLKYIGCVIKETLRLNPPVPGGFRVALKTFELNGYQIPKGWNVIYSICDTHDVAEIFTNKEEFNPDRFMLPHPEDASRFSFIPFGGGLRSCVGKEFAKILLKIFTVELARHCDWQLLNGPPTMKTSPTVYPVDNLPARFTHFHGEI

B1: CYP26 (Mus musculus) (protein)
chain: T1 sequence (O55127 1-497)

molecular target: T1, CYP26; assay: CYP26 inhibition: substrate depletion assay for ATRA metabolism in induced mouse liver microsomes; type: biochemical; settings: not given

| Molecule | IC50 [nM] |
| --- | --- |
| CCC(CC)C(c1ccc2nc(OCC3(C(=O)O)CCCCC3)sc2c1)n1cncn1 (stereo not shown) [Example-5, 1-(((6-(2-ethyl-1-(1H-1,2,4-triazol-1-yl)butyl)benzo[d]thiazol-2-yl)oxy)methyl)cyclohexanecarboxylic Acid] | < 1000 |
| CCC(CC)C(c1ccc2nc(OCC(C)(C)C(=O)O)sc2c1)n1cnnc1 (stereo not shown) [Example-2, 3-((6-(2-Ethyl-1-(4H-1,2,4-triazol-4-yl)butyl)benzo[d]thiazol-2-yl)oxy)-2,2-dimethylpropanoic Acid] | < 1000 |
| CCC(CC)C(c1ccc2nc(-c3ccc(C(=O)O)cc3)sc2c1)n1cnnc1 (stereo not shown) [Example-8, 4-(6-(2-ethyl-1-(4H-1,2,4-triazol-4-yl)butyl)benzo[d]thiazol-2-yl)benzoic Acid] | < 1000 |
| CCC(CC)C(c1ccc2nc(OCC3(C(=O)O)CCCC3)sc2c1)n1cnnc1 (stereo not shown) [Example-4, 1-(((6-(2-Ethyl-1-(4H-1,2,4-triazol-4-yl)butyl)benzo[d]thiazol-2-yl)oxy)methyl)cyclopentanecarboxylic Acid] | < 1000 |
| CCC(CC)C(c1ccc2nc(OCC(C)(C)C(=O)O)sc2c1)n1cncn1 (stereo not shown) [Example-1, 3-((6-(2-Ethyl-1-(1H-1,2,4-triazol-1-yl)butyl)benzo[d]thiazol-2-yl)oxy)-2,2-dimethylpropanoic Acid] | < 1000 |
| CCC(CC)C(c1ccc2nc(OCC3(C(=O)O)CCCC3)sc2c1)n1cncn1 (stereo not shown) [Example-3, 1-(((6-(2-Ethyl-1-(1H-1,2,4-triazol-1-yl)butyl)benzo[d]thiazol-2-yl)oxy)methyl)cyclopentanecarboxylic Acid] | < 1000 |
| CCC(CC)C(c1ccc2nc(OCC3(C(=O)O)CCCCC3)sc2c1)n1cnnc1 (stereo not shown) [Example-6, 1-(((6-(2-Ethyl-1-(4H-1,2,4-triazol-4-yl)butyl)benzo[d]thiazol-2-yl)oxy)methyl)cyclohexanecarboxylic Acid] | < 1000 |
| CCC(CC)C(c1ccc2nc(-c3ccc(C(=O)O)cc3)sc2c1)n1cncn1 (stereo not shown) [Example-7, 4-(6-(2-ethyl-1-(1H-1,2,4-triazol-1-yl)butyl)benzo[d]thiazol-2-yl)benzoic Acid] | < 1000 |

molecular target: T2, human recombinant enzyme (CYP26); assay: not given; settings: read-out: Km reported for the human recombinant enzyme; cited from earlier work

| Molecule | Km [µM] |
| --- | --- |
| CC1=C(/C=C/C(C)=C/C=C/C(C)=C/C(=O)O)C(C)(C)CCC1 [ATRA, all-trans retinoic acid] | ~0.01 |

substrate: CC1=C(/C=C/C(C)=C/C=C/C(C)=C/C(=O)O)C(C)(C)CCC1; assay: cells, lysate or membranes named; settings: other: induced mouse microsomes, Michaelis-Menten kinetics; pH 7.4

| Molecule | Km [µM] |
| --- | --- |
| B1 | 0.004 |

Source: patent US11459319B2, “Cytochrome P450 inhibitors and uses thereof” (ANGION BIOMEDICA CORP., priority 2014, dated 2022)
